Results as given in paper PMC9913425, “Pentacyclic Triterpenoids-Based Ionic Compounds: Synthesis, Study of Structure–Antitumor Activity Relationship, Effects on Mitochondria and Activation of Signaling Pathways of Proliferation, Genome Reparation and Early Apoptosis” (Cancers, 2023).
Structures can show the parent of a compound that is named as a salt.

Assays:
A2780 = assay: In vitro cytotoxicity, IC50 by flow cytometry (Guava ViaCount); type: cell-based, human
Description: (§1) Human cancer cell line HeLa, HL60, A2780 was obtained from the HPA Culture Collections (Salisbury, UK). Cells (Jurkat, K562, U937, Hek293, Fibroblasts) were purchased from Russian Cell Culture Collection (Institute of Cytology of the Russian Academy of Sciences, […], Russia) and cultured according to standard protocols and sterile technique. […] Cells were maintained in RPMI 1640 (Jurkat, K562, U937, HL60) (Gibco, Billings, MT, USA) supplemented with […], 10% FBS (Sigma) and 100 units/mL penicillin–streptomycin (Sigma). All types of cells were grown in an atmosphere of 5% CO2 at 37 °C. The cells were subcultured at 2–3 days intervals. Cells were then seeded in 24-well plates at 5 × 10^4 cells per well and incubated overnight. Jurkat, K562, U937, HL60 cells were subcultured at 2-day intervals with a seeding density of 1 × 10^5 cells per 24-well plates in RPMI with 10% FBS.
(§2) The antitumor activity of the synthesized ionic compounds was initially assessed in vitro on Jurkat, K562, U937, HL60, HEK293, A2780 cell lines, including the determination of IC50 by flow cytometry involving Guava ViaCount (Millipore) reagent kits.

HL60 = assay: as above; type: cell-based, human
Description: as §1, §2

[1] = tested on: mitochondria of Jurkat tumor cells; assay: Mitochondrial damage (MitoSense Red staining); type: cell-based; conditions: compound at IC50 concentration, incubation 2 h
Jurkat cells = assay: Apoptosis/necrosis induction (Annexin V Alexa Fluor488, 7AAD staining); type: cell-based; conditions: compound at IC50 concentration, incubation 2 h
Text: Multiparametric evaluation of marker molecules, along with the detection of damage to the mitochondrial membrane, makes it possible to clearly determine the type of cell death. The method of cell staining with three different dyes (Annexin V Alexa Fluor488, 7AAD and MitoSense Red) provides simultaneous specification of various aspects of the state of the cell membrane, the state of DNA and the viability of mitochondria; together, it is a reliable sign of intrinsic and mitochondrial apoptosis pathway. Normal cells with intact mitochondrial membranes have high MitoSense Red fluorescence, while cells with decoupled oxidation and phosphorylation have much lower fluorescence. […]
Figure 1 The ratio of the level of mito-damage and the level of apoptosis in Jurkat cells of ionic compounds based on ursolic, oleanolic and betulinic acids.

Jurkat = assay: In vitro cytotoxicity, IC50 by flow cytometry (Guava ViaCount); type: cell-based; conditions: Jurkat cells
Description: as §1, §2

K562 = assay: as above; type: cell-based
Description: as §1, §2

HEK293 = assay: as above; type: cell-based; conditions: conditionally normal
Description: as §1, §2

U937 = assay: as above; type: cell-based
Description: as §1, §2

Chk1 = assay: Luminex xMAP DNA Damage/Genotoxicity panel, phosphorylated Chk1; type: cell-based; conditions: Jurkat cells; 12a 0.006 µM, 13d 0.004 µM per 100,000 cells; 6 and 12 h
Text: [Worded in the source for another target; used here, by the source, with some conditions changed.] (§3) The determination of proteins in a cell by Luminex xMAP technology is characterized by the presence of multiplex multiparametric analysis with the simultaneous use of a multiplex of antibodies with a fluorescent label and magnetic particles, thereby resulting in an increase in the sensitivity of the technique and expansion of the dynamic range, as well as an increase in detection accuracy. Luminex XMAP technology provides a simultaneous analysis of a sufficient number of different proteins in various types of biological fluids (plasma, serum, cerebrospinal fluid, follicular fluid, tissue lysate, etc.) and in cell supernatants. Consequently, multiplexing saves time/costs and ensures the same conditions for the measurements, which is essential for significance and statistical processing.
(§4) Magnetic microspheres (stained inside with two fluorescent dyes) in combination with monoclonal antibodies against the analyzed analytes (the main intracellular kinases in this case) are incubated with the samples and standards; then, the samples/standards are incubated with biotinylated monoclonal antibodies against the analyzed analytes and, finally, with a solution of streptavidin–phycoerythrin. The Luminex technology identifies the different proteins present in each well and converts the mean fluorescence intensity (MFI) of each measured cytokine to pg/mL using software and standard curves. This approach is successfully applied in fundamental and clinical research. In this work, we analyzed various protein analytes that make up the phosphorylated and non-phosphorylated fractions of the main kinases in the signaling pathways: CREB, JNK, NFkB, p38, ERK1/2, Akt, p70S6K, STAT3, STAT5 proteins in six samples of lysates of Jurkat tumor cells by Luminex technology (MILLIPLEX® MAP 9-Plex Multi-Pathway 9-plex Magnetic Bead Kit).

Chk2 = assay: Luminex xMAP DNA Damage/Genotoxicity panel, phosphorylated Chk2; type: cell-based; conditions: Jurkat cells; 12a 0.006 µM, 13d 0.004 µM per 100,000 cells; 6 and 12 h
Text: [Worded in the source for another target; used here, by the source, with some conditions changed.] as §3, §4

[2] = Homo sapiens, A2780, A2780 cells
[3] = Homo sapiens, HL-60, HL60 cells
[4] = Homo sapiens, HEK293, HEK293 cells
[5] = Homo sapiens, U-937, U937 cells

| melting point | SMILES | IC50 (A2780; [2]) | IC50 (HL60; [3]) | Mito-Damage (%) [1] | Apoptosis (%) Early (Jurkat cells) | Apoptosis (%) Late (Jurkat cells) | Apoptosis (%) Necrosis (Jurkat cells) | IC50 (Jurkat; Homo sapiens, Jurkat) | IC50 (K562; Homo sapiens, K562, K562 cells) | IC50 (HEK293; [4]) | IC50 (U937; [5]) | percentage of cells in the apoptotic state (Jurkat cells) | IC50 (A2780; A2780 cells) | IC50 (HL60; HL60 cells) | IC50 (Jurkat) | IC50 (K562; K562 cells) | IC50 (HEK293; HEK293 cells) | IC50 (U937; U937 cells) | content of phosphorylated checkpoint kinase Chk1 (Chk1) | content of phosphorylated checkpoint kinase Chk2 (Chk2) |
| --- | --- | --- | --- | --- | --- | --- | --- | --- | --- | --- | --- | --- | --- | --- | --- | --- | --- | --- | --- | --- |
| 148 to 150 °C | C[n+]1ccn(CCCCOC(=O)[C@]23CCC(C)(C)CC2C2=CCC4[C@@]5(C)CC[C@H](O)C(C)(C)C5CC[C@@]4(C)[C@]2(C)CC3)c1 (stereo partly drawn) (as salt: bromide) [9b, 1-(4-{[(3β)-3-Hydroxyolean-12-en-28-oyl]oxy}butyl)-3-methylimidazolium bromide] |  |  |  |  |  |  |  |  |  |  |  |  |  |  |  |  |  |  |  |
|  | C=C(C)[C@@H]1CC[C@]2(C(=O)OCCn3cc[n+](C)c3)CC[C@]3(C)C(CCC4[C@@]5(C)CC[C@H](O)C(C)(C)C5CC[C@]43C)C12 (stereo partly drawn) [11a, 1-(2-{[(3β)-3-Hydroxylup-20(29)-en-28-oyl]oxy}ethyl)-3-methylimidazolium bromide] | 0.132 ± 0.012 µM | 0.022 ± 0.002 µM | 5.26% | 6.58% | 0.74% | 0.56% | 0.025 ± 0.001 µM | 0.076 ± 0.004 µM | 0.237 ± 0.021 µM | 0.069 ± 0.003 µM |  |  |  |  |  |  |  |  |  |
|  | C=C(C)[C@@H]1CC[C@]2(C(=O)OCCCCCCn3cc[n+](C)c3)CC[C@]3(C)C(CCC4[C@@]5(C)CC[C@H](O)C(C)(C)C5CC[C@]43C)C12 (stereo partly shown) [11c] | 0.036 ± 0.003 µM | 0.006 ± 0.001 µM | 25.72% | 15.59% | 1.82% | 4.37% | 0.039 ± 0.004 µM | 0.021 ± 0.001 µM | 0.054 ± 0.005 µM | 0.019 ± 0.001 µM |  |  |  |  |  |  |  |  |  |
|  | CC1(C)CC[C@]2(C(=O)OCCCCCC[N+]3(C)CCCCC3)CC[C@]3(C)C(=CCC4[C@@]5(C)CC[C@H](O)C(C)(C)C5CC[C@]43C)C2C1 (stereo partly drawn) [12b, 1-(6-{[(3β)-3-Hydroxyolean-12-en-28-oyl]oxy}hexyl)-1-methylpiperidinium bromide] | 0.034 ± 0.003 µM | 0.024 ± 0.002 µM | 23.49% | 3.21% | 18.13% | 1.9% | 0.009 ± 0.001 µM | 0.021 ± 0.001 µM | 0.076 ± 0.007 µM | 0.019 ± 0.001 µM |  |  |  |  |  |  |  |  |  |
|  | CC1(C)CC[C@]2(C(=O)OCCCCCC[N+]3(C)CCCC3)CC[C@]3(C)C(=CCC4[C@@]5(C)CC[C@H](O)C(C)(C)C5CC[C@]43C)C2C1 (stereo partly drawn) [12c, 1-(6-{[(3β)-3-Hydroxyolean-12-en-28-oyl]oxy}hexyl)-1-methylpyrrolidinium bromide] | 0.039 ± 0.004 µM | 0.027 ± 0.002 µM | 74.26% | 0.7% | 33.66% | 0.99% | 0.011 ± 0.001 µM | 0.024 ± 0.001 µM | 0.081 ± 0.008 µM | 0.021 ± 0.001 µM | 35% |  |  |  |  |  |  |  |  |
|  | CC1(C)CC[C@]2(C(=O)OCCCCCC[N+]3(C)CCOCC3)CC[C@]3(C)C(=CCC4[C@@]5(C)CC[C@H](O)C(C)(C)C5CC[C@]43C)C2C1 (stereo partly drawn) [12d, 4-(6-{[(3β)-3-Hydroxyolean-12-en-28-oyl]oxy}hexyl)-4-methylmorpholinium bromide] | 0.041 ± 0.004 µM | 0.017 ± 0.001 µM | 62.11% | 0.0% | 36.14% | 22.63% | 0.022 ± 0.002 µM | 0.069 ± 0.003 µM | 0.086 ± 0.008 µM | 0.059 ± 0.003 µM |  |  |  |  |  |  |  |  |  |
|  | CC[N+](CC)(CC)CCCCCCOC(=O)[C@]12CCC(C)(C)CC1C1=CCC3[C@@]4(C)CC[C@H](O)C(C)(C)C4CC[C@@]3(C)[C@]1(C)CC2 (stereo partly drawn) [12e, N,N,N-Triethyl-N-(6-{[(3β)-3-hydroxyolean-12-en-28-oyl]oxy}hexyl)-aminium bromide] | 0.016 ± 0.002 µM | 0.003 ± 0.001 µM | 97.3% | 0.76% | 76.0% | 7.19% | 0.007 ± 0.001 µM | 0.013 ± 0.001 µM | 0.034 ± 0.003 µM | 0.01 ± 0.001 µM |  |  |  |  |  |  |  |  |  |
|  | CC1(C)CC[C@]2(C(=O)OCCCCCC[N+](C)(C)CCO)CC[C@]3(C)C(=CCC4[C@@]5(C)CC[C@H](O)C(C)(C)C5CC[C@]43C)C2C1 (stereo partly drawn) [12f, N-(2-Hydroxyethyl)-N-(6-{[(3β)-3-hydroxyolean-12-en-28-oyl]oxy}hexyl)-N,N-dimethylaminium bromide] | 0.015 ± 0.001 µM | 0.011 ± 0.001 µM | 86.98% | 0.0% | 30.87% | 54.23% | 0.017 ± 0.001 µM | 0.049 ± 0.002 µM | 0.026 ± 0.002 µM | 0.042 ± 0.002 µM | 85.10% |  |  |  |  |  |  |  |  |
|  | Cn1cc[n+](CCCCCCOC(=O)C23CCC(C)(C)CC2C2=CCC4C5(C)CCC(O)C(C)(C)C5CCC4(C)C2(C)CC3)c1.[F][Sb-]([F])([F])([F])([F])[F] (stereo not drawn) [13b, 1-(6-{[(3β)-3-Hydroxyolean-12-en-28-oyl]oxy}hexyl)-3-methylimidazolium Hexafluoroantimonate] |  |  | 35.72% | 2.35% | 17.49% | 4.68% |  |  |  |  |  | 0.021 ± 0.002 µM | 0.003 ± 0.001 µM | 0.009 ± 0.001 µM | 0.012 ± 0.001 µM | 0.039 ± 0.003 µM | 0.01 ± 0.001 µM |  |  |
|  | Cn1cc[n+](CCCCCCOC(=O)[C@]23CCC(C)(C)C[C@H]2C2=CC[C@@H]4[C@@]5(C)CC[C@H](O)C(C)(C)[C@@H]5CC[C@@]4(C)[C@]2(C)CC3)c1.F[P-](F)(F)(F)(F)F [13c, 1-(6-{[(3β)-3-Hydroxyolean-12-en-28-oyl]oxy}hexyl)-3-methylimidazolium Hexafluorophosphate] |  |  | 8.32% | 3.62% | 5.20% | 1.78% |  |  |  |  |  | 0.014 ± 0.001 µM | 0.003 ± 0.001 µM | 0.008 ± 0.001 µM | 0.007 ± 0.001 µM | 0.032 ± 0.003 µM | 0.005 ± 0.001 µM |  |  |
|  | C[n+]1ccn(CCCCCCOC(=O)[C@]23CCC(C)(C)CC2C2=CCC4[C@@]5(C)CC[C@H](O)C(C)(C)C5CC[C@@]4(C)[C@]2(C)CC3)c1.O=S(=O)([O-])c1ccccc1 (stereo partly drawn) [13e, 1-(6-{[(3β)-3-Hydroxyolean-12-en-28-oyl]oxy}hexyl)-3-methylimidazolium Benzenesulfonate] |  |  | 7.71% | 6.26% | 3.12% | 1.52% |  |  |  |  |  | 0.024 ± 0.002 µM | 0.004 ± 0.001 µM | 0.011 ± 0.001 µM | 0.017 ± 0.001 µM | 0.046 ± 0.004 µM | 0.014 ± 0.001 µM |  |  |
|  | C=C(C)[C@@H]1CC[C@]2(C(=O)[O-])CC[C@]3(C)[C@H](CC[C@@H]4[C@@]5(C)CC[C@H](O)C(C)(C)[C@@H]5CC[C@]43C)[C@@H]12.CCn1cc[n+](C)c1 [17a, 1-Ethyl-3-methylimidazolium (3β)-3-hydroxyolup-20(29)-en28-oylate] |  |  | 8.84% | 2.91% | 1.38% | 3.30% |  |  |  |  |  | 0.081 ± 0.008 µM | 0.017 ± 0.002 µM | 0.018 ± 0.001 µM | 0.041 ± 0.002 µM | 0.182 ± 0.017 µM | 0.034 ± 0.002 µM |  |  |
|  | N#CC(C#N)=NNc1cccc(Cl)c1 [CCCP] |  |  |  |  |  |  |  |  |  |  |  |  |  |  |  |  |  | significantly decreases | significantly decreases |
